The values that follow come from US20220089638A1, “DITHIOCARBAMATE STAPLED PEPTIDES AND METHODS OF MAKING AND USE THEREOF” (UNIVERSITY OF MARYLAND, BALTIMORE, priority 2019, published 2022).

Where a SMILES comes first, the peptide text is derived from it. Bridges are numbered along the chain shown (N, C = ends). Where no end group is shown, it is not given here.

A short description of series [1]: Circular dichroism spectroscopy, percent α-helix. It counts as physicochemical. The settings on record: CD spectroscopy. The text has this:
Circular Dichroism (CD) Spectroscopy.

Series [2] concerns the target T1, cathepsin G (Homo sapiens, UniProt P08311).
T1 sequence (P08311 21-244): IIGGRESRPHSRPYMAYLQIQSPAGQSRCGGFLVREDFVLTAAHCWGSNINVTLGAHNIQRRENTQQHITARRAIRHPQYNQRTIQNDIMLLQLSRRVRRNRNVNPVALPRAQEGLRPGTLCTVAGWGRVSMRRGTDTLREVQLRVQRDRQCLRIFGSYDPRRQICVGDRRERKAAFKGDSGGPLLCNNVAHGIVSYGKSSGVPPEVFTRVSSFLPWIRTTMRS
The series is described as follows: Proteolytic stability in the presence of cathepsin G. In kind it is in vitro ADME. The settings on record: cathepsin G (25 μg/ml) in RPMI 1640; 100 μM peptide, 25 μg/mL cathepsin G, cell culture medium, room temperature.

The conditions of series [3]: 25° C., PBS buffer, glutathione 10 mM, over 24 h.
Series [4] deals with T2, synthetic 25-109MDM2 (p53-binding domain of MDM2) (UniProt Q00987 25-109).
T2 construct: range 25-109
The experiment in a line: SPR competition in solution: MDM2 at 25 nM incubated with the peptide, free MDM2 read on a chip with immobilised 15-29p53.

In series [5] the target is T3, synthetic 24-108MDMX (p53-binding domain of MDMX) (UniProt O15151 24-108).
T3 sequence (looked up): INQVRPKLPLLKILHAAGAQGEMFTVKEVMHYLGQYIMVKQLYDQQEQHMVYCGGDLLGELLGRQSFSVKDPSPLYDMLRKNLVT
The series is described as follows: SPR competition in solution: MDMX at 100 nM incubated with the peptide, free MDMX read on a chip with immobilised 15-29p53.

The target in series [6] is T2, synthetic 25-109MDM2 (p53-binding …). The series is described as follows: SPR competition in solution: MDM2 at 25 nM incubated with the peptide, free MDM2 read on a chip with immobilised 15-29p53. This is another data set of the same source.
Series [7] has the same target. The experiment in a line: FP competition: the peptide displaces TAMRA-PMI (10 nM) from MDM2 (50 nM) [left panel].
Series [8] shares this target. The experiment in a line: FP competition: the peptide displaces TAMRA-PMI (10 nM) from MDM2 (50 nM).
Series [9] concerns the target T3, synthetic 24-108MDMX (p53-binding …). The experiment in a line: SPR competition in solution: MDMX at 100 nM incubated with the peptide, free MDMX read on a chip with immobilised 15-29p53. The source holds these as a separate data set.
For series [10], the target named is T2, synthetic 25-109MDM2 (p53-binding …). The series is described as follows: FP competition: the peptide displaces TAMRA-PMI (10 nM) from MDM2 (50 nM). This is another data set of the same source.
In series [11] the target is T3, synthetic 24-108MDMX (p53-binding …). The series is described as follows: FP competition: the peptide displaces TAMRA-PMI (10 nM) from MDMX (50 nM).
Series [12] has the same target. The series is described as follows: FP competition: the peptide displaces TAMRA-PMI (10 nM) from MDMX (50 nM) [right panel].

Consider `CC(=O)N[C@H]1CCCCNC(=S)SC[C@@H](C(=O)N[C@@H](Cc2ccc(O)cc2)C(=O)N[C@@H](Cc2c[nH]c3ccccc23)C(=O)N[C@@H](CC(N)=O)C(=O)N[C@@H](CC(C)C)C(=O)N[C@@H](CC(C)C)C(=O)N[C@@H](CO)C(=O)N2CCC[C@H]2C(N)=O)NC(=O)[C@H](C)NC(=O)[C@H](Cc2ccccc2)NC(=O)[C@H](CO)NC1=O` [PMI(1,5)-a], for which the “α-helix (%)” value in series [1] (Table 3) was 36%; in series [1] (Table 7), 6.50%.
On the same counts, the results for `CC(=O)N[C@H]1CSC(=S)NCCCC[C@@H](C(=O)N[C@@H](Cc2ccc(O)cc2)C(=O)N[C@@H](Cc2c[nH]c3ccccc23)C(=O)N[C@@H](CC(N)=O)C(=O)N[C@@H](CC(C)C)C(=O)N[C@@H](CC(C)C)C(=O)N[C@@H](CO)C(=O)N2CCC[C@H]2C(N)=O)NC(=O)[C@H](C)NC(=O)[C@H](Cc2ccccc2)NC(=O)[C@H](CO)NC1=O` [PMI(1,5)-b] are 7.6% and 8.38%.
For `CC(=O)N[C@H](C(=O)N[C@H]1CCCCNC(=S)SC[C@@H](C(=O)N[C@@H](Cc2c[nH]c3ccccc23)C(=O)N[C@@H](CC(N)=O)C(=O)N[C@@H](CC(C)C)C(=O)N[C@@H](CC(C)C)C(=O)N[C@@H](CO)C(=O)N2CCC[C@H]2C(N)=O)NC(=O)[C@H](CCC(=O)O)NC(=O)[C@H](C)NC(=O)[C@H](Cc2ccccc2)NC1=O)[C@@H](C)O` [PMI(2,6)-a] the same measures were 5.9% and 15.3%.
On the same counts, the results for `CC(=O)N[C@H](C(=O)N[C@H]1CSC(=S)NCCCC[C@@H](C(=O)N[C@@H](Cc2c[nH]c3ccccc23)C(=O)N[C@@H](CC(N)=O)C(=O)N[C@@H](CC(C)C)C(=O)N[C@@H](CC(C)C)C(=O)N[C@@H](CO)C(=O)N2CCC[C@H]2C(N)=O)NC(=O)[C@H](CCC(=O)O)NC(=O)[C@H](C)NC(=O)[C@H](Cc2ccccc2)NC1=O)[C@@H](C)O` [PMI(2,6)-b] are 3.1% and 4.81%.
With `CC(=O)N[C@H](C(=O)N[C@@H](CO)C(=O)N[C@@H](Cc1ccccc1)C(=O)N[C@H]1CCCCNC(=S)SC[C@@H](C(=O)N[C@@H](CC(C)C)C(=O)N[C@@H](CC(C)C)C(=O)N[C@@H](CO)C(=O)N2CCC[C@H]2C(N)=O)NC(=O)[C@H](Cc2c[nH]c3ccccc23)NC(=O)[C@H](Cc2ccc(O)cc2)NC(=O)[C@H](CCC(=O)O)NC1=O)[C@@H](C)O` [PMI(4,8)-a], the “α-helix (%)” value is 25% in series [1] (Table 3) and 39.3% in series [1] (Table 7).
Take `CC(=O)N[C@H](C(=O)N[C@@H](CO)C(=O)N[C@@H](Cc1ccccc1)C(=O)N[C@H]1CSC(=S)NCCCC[C@@H](C(=O)N[C@@H](CC(C)C)C(=O)N[C@@H](CC(C)C)C(=O)N[C@@H](CO)C(=O)N2CCC[C@H]2C(N)=O)NC(=O)[C@H](Cc2c[nH]c3ccccc23)NC(=O)[C@H](Cc2ccc(O)cc2)NC(=O)[C@H](CCC(=O)O)NC1=O)[C@@H](C)O` [PMI(4,8)-b]: the “α-helix (%)” value in series [1] (Table 3) was determined as 5.6%; in series [1] (Table 7), 9.15%.
Take `CC(=O)N[C@H](C(=O)N[C@@H](CO)C(=O)N[C@@H](Cc1ccccc1)C(=O)N[C@@H](C)C(=O)N[C@H]1CCCCNC(=S)SC[C@@H](C(=O)N[C@@H](CC(C)C)C(=O)N[C@@H](CO)C(=O)N2CCC[C@H]2C(N)=O)NC(=O)[C@H](CC(N)=O)NC(=O)[C@H](Cc2c[nH]c3ccccc23)NC(=O)[C@H](Cc2ccc(O)cc2)NC1=O)[C@@H](C)O` [PMI(5,9)-a]: the “α-helix (%)” value in series [1] (Table 3) is listed as 0%; in series [1] (Table 7), 6.88%.
On the same counts, the results for `CC(=O)N[C@H](C(=O)N[C@@H](CO)C(=O)N[C@@H](Cc1ccccc1)C(=O)N[C@@H](C)C(=O)N[C@H]1CSC(=S)NCCCC[C@@H](C(=O)N[C@@H](CC(C)C)C(=O)N[C@@H](CO)C(=O)N2CCC[C@H]2C(N)=O)NC(=O)[C@H](CC(N)=O)NC(=O)[C@H](Cc2c[nH]c3ccccc23)NC(=O)[C@H](Cc2ccc(O)cc2)NC1=O)[C@@H](C)O` [PMI(5,9)-b] are 0% and 9.58%.
Take `CC(=O)N[C@H](C(=O)N[C@@H](CO)C(=O)N[C@@H](Cc1ccccc1)C(=O)N[C@@H](C)C(=O)N[C@@H](CCC(=O)O)C(=O)N[C@@H](Cc1ccc(O)cc1)C(=O)N[C@@H](Cc1c[nH]c2ccccc12)C(=O)N[C@H]1CCCCNC(=S)SC[C@@H](C(N)=O)NC(=O)[C@H](CO)NC(=O)[C@H](CC(C)C)NC(=O)[C@H](CC(C)C)NC1=O)[C@@H](C)O` [PMI(8,12)-a]: the half-life at 100 μM in [2] is ~8 h. In addition, the “α-helix (%)” value in series [1] (Table 3) is recorded as 33%; in series [1] (Table 7) it was 43.3%. Besides, the “breakdown of the DTC structure in reduced glutathione” value in series [3] is recorded as “no apparent breakdown of the DTC structure was observed over 24 h”.
Regarding `CC(=O)N[C@H](C(=O)N[C@@H](CO)C(=O)N[C@@H](Cc1ccccc1)C(=O)N[C@@H](C)C(=O)N[C@@H](CCC(=O)O)C(=O)N[C@@H](Cc1ccc(O)cc1)C(=O)N[C@@H](Cc1c[nH]c2ccccc12)C(=O)N[C@H]1CSC(=S)NCCCC[C@@H](C(N)=O)NC(=O)[C@H](CO)NC(=O)[C@H](CC(C)C)NC(=O)[C@H](CC(C)C)NC1=O)[C@@H](C)O` [PMI(8,12)-b], the “α-helix (%)” value in series [1] (Table 3) turned out to be 0%; in [1] (Table 7), 0.23%.
On the same counts, the results for `CC(=O)N[C@H](C(=O)N[C@@H](CO)C(=O)N[C@@H](Cc1ccccc1)C(=O)N[C@@H](C)C(=O)N[C@@H](CCC(=O)O)C(=O)N[C@@H](Cc1ccc(O)cc1)C(=O)N[C@@H](Cc1c[nH]c2ccccc12)C(=O)N[C@@H](CC(N)=O)C(=O)N[C@@H](CC(C)C)C(=O)N[C@@H](CC(C)C)C(=O)N[C@@H](CO)C(=O)N1CCC[C@H]1C(N)=O)[C@@H](C)O` [PMI-0, reference compound] (Ac-TSFAEYWNLLSP-NH2) are 0% and 9.77%.
Turning to Ac-TSFAEYWKLLSC-NH2 (bridge 8-12) [PMI(8,12)-a], the “IC50 (read off the curve)” value is ~0.01 µM in series [4]; 0.05 to 0.06 µM in series [5]; ~0.01 µM in series [6]; ~0.03 µM in series [7]; ~0.03 µM in [8].

B1: ^DTCp53 (DTC-stapled 16-27p53, Ser20Cys, staple Cys20-Lys24) (peptide, UniProt P04637 16-27, looked up)
peptide: QETFCDLWKLLP
modifications: bridge 5-9
notes: range 16-27; also called stapled p53 peptide
Regarding B1, the entries for the “IC50 (read off the curve)” value in series [9] and in series [10] were ~0.1 µM and ~0.3 µM, respectively.

B2: PMI(4,8)-a (peptide)
peptide: Ac-TSFKEYWCLLSP-NH2
modifications: bridge 4-8
notes: Co-crystal with MDMX is PDB 5VK1; also called PMI(4, 8)-1
Regarding B2, the “IC50 (read off the curve)” value was ~0.03 µM in series [11]; ~0.03 µM in series [12]; ~0.01 µM in series [4]; ~0.05 µM in series [5]; ~0.01 µM in series [6]; ~0.04 µM in series [7]. The “IC50 (read off the curve)” value in [8] was ~0.04 µM.
